From article PMC5862576, “Mitochondrial fission as a driver of stemness in tumor cells: mDIVI1 inhibits mitochondrial function, cell migration and cancer stem cell (CSC) signalling” (Oncotarget, 2018)

Columns and labels:
Assay type in all cases: cell-based, Human
[1] = tested on: MCF7 cells; assay: Mitochondrial staining (MitoTracker Deep Red, microscopy); conditions: 10 µM, 2 days or 5 days
Protocol: One hundred thousand MCF7 cells were seeded onto coverslips in 12-well plates. When cells were attached, mDIVI1 and vehicle treatments were performed in triplicate. After 2 days and 5 days, mitochondria were labeled by incubating cells for 15 min at 37° C with 25 nM of MitoTracker DeepRed (M22426, Invitrogen) diluted in PBS ([…], Sigma). Then, cells were washed with PBS, fixed in 2% paraformaldehyde (28908, Thermo Scientific) in PBS for 30 minutes at room temperature and mounted with ProLong® Gold Antifade Mountant reagent with DAPI (P36935, Invitrogen, Inc.). Immunofluorescence pictures were taken in a Leica gated Stimulated Emission Depletion Microscopy (gSTED) with additional confocal and multi-photon illumination (room rg106).

[2] = tested on: MCF7 cells; assay: Mitochondrial superoxide (MitoSOX, flow cytometry); conditions: both concentrations; 24 hour, 2 and 5 days; vs vehicle
Protocol: For both assays, 2 × 10^5 MCF7 cells were seeded in 35 mm plates. When cells were attached, either vehicle or mDIVI1 were added to the cells for 24, 48 hours or 5 days in triplicate. Reactive oxygen species (ROS) production was measured using CM-H2DCFDA (C6827, Invitrogen). Briefly, cells were incubated for 20 minutes at 37° C with 1 µM CM-H2DCFDA diluted in PBS and then placed in complete media for 20 minutes at 37° C in the dark, to render the dye fluorescent, according to the manufacturer. Mitochondrial superoxide was measured using MitoSOX Red Mitochondrial Superoxide Indicator (M36008, ThermoFisher Scientific). Briefly, cells were incubated for 10 minutes at 37° C in the dark with 5 µM MitoSOX diluted in PBS, according to the manufacturer. ROS signal and MitoSOX signal was quantified as mean fluorescent intensity of the viable cell population in a Fortessa flow cytometer (BD Bioscience). Results were analysed using FlowJo software.

[3] = tested on: MCF7 cells; assay: Tumorsphere formation assay, MCF7; conditions: five days, vs vehicle
Protocol: A single cell suspension was prepared using enzymatic (1× Trypsin-EDTA, T3924, Sigma Aldrich), and manual disaggregation (25 gauge needle). Cells were plated at a density of 5000 cells/well in tumorsphere media (DMEM-F12/B27/EGF (20ng/ml)/Pen-Strep) in non-adherent conditions, in 6-well plates coated with (2-hydroxyethylmethacrylate) (poly-HEMA, P3932, Sigma) in the presence of mDIVI1 or vehicle. After 5 days of culture in a humidified incubator at 37° C, tumorspheres bigger than 50 μm were counted using an eye piece graticule.

[4] = tested on: MCF7 cells; assay: CD24/CD44 expression (FACS)
Protocol: Following mDIVI1 treatment, MCF7 cells grown either in suspension or as monolayers were analysed for their expression of CD24 and CD44. The surviving fraction after 2 days and 5 days of growth was analyzed by FACS. MCF7 cells were either trypsinised or spun down and trypsinised and incubated with CD24 (IOTest CD24-PE, Beckman Coulter) and CD44 (APC mouse anti-human CD44, 559942, BD Pharmingen) for 15 minutes on ice. Cells were then rinsed twice in PBS, spun down, and resuspended with DAPI dye (D1306, Molecular probes) at 3 μM in PBS for 10 minutes. Samples were then analyzed by FACS (Fortessa, BD Bioscence). Only the live cell population, identified using the DAPI staining, was analyzed for CD24/CD44 expression. Data were analyzed using FlowJo software.

## COc1cc(-n2c(=S)[nH]c3ccccc3c2=O)c(Cl)cc1Cl [mDIVI1, 3-(2,4-Dichloro-5-methoxyphenyl) 2,3-dihydro 2-thioxo-4(1H) quinazolinone]
[1]
  mitochondrial morphology: more interconnected mitochondria
[2]
  mitochondrial superoxide production (MitoSOX): significantly increased
[3]; 10 µM
  decrease of MCF7 tumorsphere number: 50%
[3]; 50 µM
  decrease of MCF7 tumorsphere number: 80%
[3]; 100 µM
  decrease of MCF7 tumorsphere number: 95%
[4]; 50 µM, in suspension
  CD24−/CD44+ subpopulation: significantly increased
[4]; 10 or 50 µM, cells grown as monolayers, vs vehicle
  abundance of CD24−/CD44+ subpopulation: not reduced
[4]; cells in suspension, dose-dependent
  amount of CD24−/CD44+ cells: unexpectedly increased
